This passage reports IC50 results from patent US9932331B2, “Phenyl tetrahydroisoquinoline compound substituted with heteroaryl” (TAISHO PHARMACEUTICAL CO., LTD, priority 2014, dated 2018).

Where a name gives a salt, the structure may show the parent alone.

In general, IC50 refers to the point on the concentration scale where inhibition reaches its midpoint.

This test has as its target T1, human NHE3 (Homo sapiens, UniProt P48764).
T1 sequence (P48764 26-834): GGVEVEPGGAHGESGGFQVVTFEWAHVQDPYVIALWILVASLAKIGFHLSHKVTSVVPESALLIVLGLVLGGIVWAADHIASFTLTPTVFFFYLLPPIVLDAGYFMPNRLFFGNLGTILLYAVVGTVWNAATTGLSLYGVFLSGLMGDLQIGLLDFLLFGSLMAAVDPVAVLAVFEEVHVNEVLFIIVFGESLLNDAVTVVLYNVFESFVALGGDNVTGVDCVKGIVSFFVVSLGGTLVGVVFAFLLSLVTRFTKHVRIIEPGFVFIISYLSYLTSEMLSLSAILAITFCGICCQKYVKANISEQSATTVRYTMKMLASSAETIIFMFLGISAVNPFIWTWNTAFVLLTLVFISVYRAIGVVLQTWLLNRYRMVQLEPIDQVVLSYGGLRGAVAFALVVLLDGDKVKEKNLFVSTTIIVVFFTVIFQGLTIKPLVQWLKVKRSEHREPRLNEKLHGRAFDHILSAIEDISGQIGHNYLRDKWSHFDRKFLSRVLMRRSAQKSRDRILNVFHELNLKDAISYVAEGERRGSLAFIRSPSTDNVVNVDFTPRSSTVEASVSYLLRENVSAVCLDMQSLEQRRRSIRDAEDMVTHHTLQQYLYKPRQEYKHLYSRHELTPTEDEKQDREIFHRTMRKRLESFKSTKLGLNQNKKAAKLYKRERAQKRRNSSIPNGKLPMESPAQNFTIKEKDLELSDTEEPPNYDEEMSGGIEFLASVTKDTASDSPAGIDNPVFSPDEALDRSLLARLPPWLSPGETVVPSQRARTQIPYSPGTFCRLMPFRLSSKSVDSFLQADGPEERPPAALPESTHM
The test is described as follows: NHE3 inhibition test (recovery of intracellular pH in cell line stably expressing human NHE3). It is filed as cell-based. As to conditions: OK cells deficient in endogenous NHE stably expressing human NHE3; BCECF fluorescence, initial rate of pH recovery; read-out: human NHE3 inhibitory activity IC50. The protocol:
(1) Preparation of Cell Line Deficient in Endogenous NHE
The cell line deficient in endogenous NHE was prepared according to the method of Jacques Pouyssegur et al. (Proc. Natl. Acad. Sci. USA. 1984, Vol. 81, 4833-4837) using opossum kidney (OK) cells (ATCC).
(2) Preparation of Expression Plasmid and Cell Line Stably Expressing Human NHE3
The expression plasmid was constructed by inserting a human NHE3 (SLC9A3, Accession No. NM_004174) cDNA sequence (GeneCopoeia, Inc.) into a pcDNA3.2/V5-DEST vector (Life Technologies Corp.).
The OK cells deficient in endogenous NHE were transfected with the constructed human NHE3 expression plasmid to prepare stably expressing cells. The transfection was carried out by electroporation using a Nucleofector 2b device (Lonza Group Ltd.). A stably expressing cell line was selected in medium supplemented with 500 μg/mL Geneticin (Life Technologies Corp.) and isolated.
NHE3 activity measurement method using cell: The activity was determined by using the NHE3-mediated recovery of intracellular pH occurring after intracellular acidification, as an index. The intracellular pH was measured by a partial modification of the pH-sensitive fluorescent indicator method reported by Tsien et al. (Proc. Natl. Acad. Sci. USA., 1984, 81, 7436-7440).
The cell line stably expressing human NHE3 was inoculated on a poly-D-lysine-coated 96-well plate (Greiner Bio-one) and cultured overnight. […] Then, Hank's balanced salt buffer solution containing 0.25 μM BCECF-AM (Dojindo Laboratories) was added to the cells, which were then incubated at 37° C. for 30 minutes. […] The cells thus incubated in the NH4Cl buffer solution were washed with NH4Cl-free buffer solution (133.8 mM choline chloride, […], 5 mM glucose, 4.7 mM KCl, 1.25 mM CaCl2, 1.25 mM MgCl2, 0.97 mM K2HPO4, 0.23 mM KH2PO4, pH 7.4) to decrease the intracellular pH. After the washing step, 70 μL of a test compound solution prepared with the NH4Cl-free buffer solution was added to the cells, and 70 iμL of sodium ion-containing buffer solution (133.8 mM NaCl, 10 mM HEPES, 5 mM glucose, 4.7 mM KCl, 1.25 mM CaCl2, 1.25 mM MgCl2, 0.97 mM Na2HPO4, 0.23 mM NaH2PO4, pH 7.4) was added thereto in a measurement system FDSS6000 (Hamamatsu Photonics K.K.) to start the recovery of pH. The recovery of intracellular pH was monitored using BCECF fluorescence (excitation wavelength: 480 nm, fluorescence wavelength: 520 to 560 nm), and the initial rate of the pH recovery was plotted. The recovery of pH without test compound was defined as the maximum recovery, and the test compound concentration necessary to inhibit 50% of the maximum recovery was calculated as an IC50 value.
As to “1,3-Bis[14-(4-{3-[(4S)-6,8-dichloro-2-methyl-1,2,3,4-tetrahydroisoquinolin-4-yl]phenyl}-1H-1,2,3-triazol-1-yl)-3,6,9,12-tetraoxatetradec-1-yl]urea hydrochloride [Example 7-44]”, the IC50 is 7.6 nM.

In the case of `CN1Cc2c(Cl)cc(Cl)cc2[C@H](c2cccc(-c3ccncc3)c2)C1` [Example 1-1, (4S)-6,8-Dichloro-2-methyl-4-[3-(pyridin-4-yl)phenyl]-1,2,3,4-tetrahydroisoquinoline], the IC50 was 217 nM.

Turning to `CN1Cc2c(Cl)cc(Cl)cc2[C@H](c2cccc(-c3cccnc3)c2)C1` [Example 1-2, (4S)-6,8-Dichloro-2-methyl-4-[3-(pyridin-3-yl)phenyl]-1,2,3,4-tetrahydroisoquinoline trifluoroacetate], the IC50 is 217 nM.

As for `CN1Cc2c(Cl)cc(Cl)cc2[C@H](c2cccc(-c3ccn[nH]3)c2)C1` [Example 1-3, (4S)-6,8-Dichloro-2-methyl-4-[3-(1H-pyrazol-3-yl)phenyl]-1,2,3,4-tetrahydroisoquinoline], the IC50 was found to be 392 nM.

For `CN1Cc2c(Cl)cc(Cl)cc2[C@H](c2cccc(-c3cn[nH]c3)c2)C1` [Example 1-4, (4S)-6,8-dichloro-2-methyl-4-[3-(1H-pyrazol-4-yl)phenyl]-1,2,3,4-tetrahydroisoquinoline], the IC50 came to 257 nM.

As for `Cc1cc(-c2cccc([C@@H]3CN(C)Cc4c(Cl)cc(Cl)cc43)c2)cnn1` [Example 1-5, (4S)-6,8-Dichloro-2-methyl-4-[3-(6-methylpyridazin-4-yl)phenyl]-1,2,3,4-tetrahydroisoquinoline trifluoroacetate], the half-maximal inhibitory concentration (IC50) stood at 58.1 nM.

Regarding `CN1Cc2c(Cl)cc(Cl)cc2[C@H](c2cccc(-c3ccccn3)c2)C1` [Example 1-6, (4S)-6,8-Dichloro-2-methyl-4-[3-(pyridin-2-yl)phenyl]-1,2,3,4-tetrahydroisoquinoline trifluoroacetate], the IC50 amounted to 373 nM.

On to `CN1Cc2c(Cl)cc(Cl)cc2[C@H](c2cccc(-c3ccnc(C#N)c3)c2)C1` [Example 1-7, 4-{3-[(4S)-6,8-Dichloro-2-methyl-1,2,3,4-tetrahydroisoquinolin-4-yl]phenyl}pyridine-2-carbonitrile], for which the IC50 is 626 nM.

For `CN1Cc2c(Cl)cc(Cl)cc2C(c2cccc(-c3cn(C)nn3)c2)C1` (stereo not drawn) [Example 1-8, 6,8-Dichloro-2-methyl-4-[3-(1-methyl-1H-1,2,3-triazol-4-yl)phenyl]-1,2,3,4-tetrahydroisoquinoline], the IC50 amounted to 126 nM.

Turning to `CNc1cc(-c2cccc([C@@H]3CN(C)Cc4c(Cl)cc(Cl)cc43)c2)ccn1` [Example 1-9, 4-{3-[(4S)-6,8-Dichloro-2-methyl-1,2,3,4-tetrahydroisoquinolin-4-yl]phenyl}-N-methylpyridin-2-amine trifluoroacetate], the IC50 came to 561 nM.

On to `CN1Cc2c(Cl)cc(Cl)cc2[C@H](c2cccc(-c3cncnc3)c2)C1` [Example 1-10, (4S)-6,8-Dichloro-2-methyl-4-[3-(pyrimidin-5-yl)phenyl]-1,2,3,4-tetrahydroisoquinoline trifluoroacetate], for which the IC50 amounted to 169 nM.

Regarding `COc1cc(-c2cccc([C@@H]3CN(C)Cc4c(Cl)cc(Cl)cc43)c2)ccn1` [Example 1-11, (4S)-6,8-Dichloro-4-[3-(2-methoxypyridin-4-yl)phenyl]-2-methyl-1,2,3,4-tetrahydroisoquinoline trifluoroacetate], the IC50 worked out at 1600 nM.

For the molecule `CCc1cc(-c2cccc([C@@H]3CN(C)Cc4c(Cl)cc(Cl)cc43)c2)ccn1` [Example 1-12, (4S)-6,8-Dichloro-4-[3-(2-ethylpyridin-4-yl)phenyl]-2-methyl-1,2,3,4-tetrahydroisoquinoline trifluoroacetate], the IC50 came out at 650 nM.

Turning to `COc1cc(-c2cccc([C@@H]3CN(C)Cc4c(Cl)cc(Cl)cc43)c2)ncn1` [Example 1-13, (4S)-6,8-Dichloro-4-[3-(6-methoxypyrimidin-4-yl)phenyl]-2-methyl-1,2,3,4-tetrahydroisoquinoline trifluoroacetate], the IC50 was found to be 271 nM.

On to `CN1Cc2c(Cl)cc(Cl)cc2[C@H](c2cccc(-c3cnccn3)c2)C1` [Example 1-14, (4S)-6,8-Dichloro-2-methyl-4-[3-(pyrazin-2-yl)phenyl]-1,2,3,4-tetrahydroisoquinoline trifluoroacetate], for which the IC50 came out at 173 nM.

Take `CNc1cc(-c2cccc([C@@H]3CN(C)Cc4c(Cl)cc(Cl)cc43)c2)ncn1` [Example 1-15, 6-{3-[(4S)-6,8-Dichloro-2-methyl-1,2,3,4-tetrahydroisoquinolin-4-yl]phenyl}-N-methylpyrimidin-4-amine trifluoroacetate]: the IC50 is 117 nM.

On to `CN1Cc2c(Cl)cc(Cl)cc2[C@H](c2cccc(-c3ncccn3)c2)C1` [Example 1-16, (4S)-6,8-Dichloro-2-methyl-4-[3-(pyrimidin-2-yl)phenyl]-1,2,3,4-tetrahydroisoquinoline trifluoroacetate], for which the IC50 worked out at 184 nM.

For the molecule `CN1Cc2c(Cl)cc(Cl)cc2[C@H](c2cccc(-c3ccnnc3)c2)C1` [Example 1-17, (4S)-6,8-Dichloro-2-methyl-4-[3-(pyridazin-4-yl)phenyl]-1,2,3,4-tetrahydroisoquinoline trifluoroacetate], the IC50 stood at 109 nM.

For the molecule `CN1Cc2c(Cl)cc(Cl)cc2[C@H](c2cccc(-c3cn(C)cn3)c2)C1` [Example 1-18, (4S)-6,8-Dichloro-2-methyl-4-[3-(1-methyl-1H-imidazol-4-yl)phenyl]-1,2,3,4-tetrahydroisoquinoline], the IC50 was 95.7 nM.

On to `Cc1cc(-c2cccc([C@@H]3CN(C)Cc4c(Cl)cc(Cl)cc43)c2)sn1` [Example 1-19, (4S)-6,8-Dichloro-2-methyl-4-[3-(3-methyl-1,2-thiazol-5-yl)phenyl]-1,2,3,4-tetrahydroisoquinoline hydrochloride], for which the IC50 was found to be 856 nM.

In the case of `CN1Cc2c(Cl)cc(Cl)cc2[C@H](c2cccc(-c3cccnn3)c2)C1` [Example 1-20, (4S)-6,8-Dichloro-2-methyl-4-[3-(pyridazin-3-yl)phenyl]-1,2,3,4-tetrahydroisoquinoline hydrochloride], the half-inhibitory concentration (IC50) stood at 208 nM.

Take `CN1Cc2c(Cl)cc(Cl)cc2[C@H](c2cccc(-c3ccc[nH]3)c2)C1` [Example 1-21, (4S)-6,8-Dichloro-2-methyl-4-[3-(1H-pyrrol-2-yl)phenyl]-1,2,3,4-tetrahydroisoquinoline]: the IC50 was 1170 nM.

On to `CN1Cc2c(Cl)cc(Cl)cc2[C@H](c2cccc(-c3ncco3)c2)C1` [Example 1-22, (4S)-6,8-Dichloro-2-methyl-4-[3-(1,3-oxazol-2-yl)phenyl]-1,2,3,4-tetrahydroisoquinoline hydrochloride], for which the IC50 was determined as 306 nM.

For the molecule `CN1Cc2c(Cl)cc(Cl)cc2[C@H](c2cccc(-c3ccco3)c2)C1` [Example 1-23, (4S)-6,8-Dichloro-4-[3-(furan-2-yl)phenyl]-2-methyl-1,2,3,4-tetrahydroisoquinoline], the IC50 was found to be 3220 nM.
